Source: patent publication US20060153931A1, “Prevention of flap necrosis in plastic surgery” (priority 2001, published 2006)
Ends that are not written are not given here.

Assays:
headache = assay type: in vivo; conditions: oral capsules each containing 100 mg aspirin and 200 mg of CX—NO
Procedure: CX—NO of Example 14 of U.S. Pat. No. 6,403,759 is formulated in a gel at 50 mM and is admixed with aspirin and the combination used to fill capsules each containing 100 mg aspirin and 200 mg of CX—NO. […] Alternatively, the CX—NO is used as or included in a coating for aspirin tablets (100 mg aspirin in a tablet), and administration orally of the coated aspirin provides the same result.

[1] = system: coronary artery bypass grafts; experiment: Patient with coronary artery bypass, vasospasm of the grafts (Example II); assay type: in vivo, human
[2] = system: skin flaps based on the epigastric artery and vein; experiment: Rat epigastric skin flap model, ET-1 induced pedicle vasoconstriction (Background Example 1); assay type: in vivo, rats
[3] = system: free tissue transfer of forearm tissues to the face; conditions: human, in vivo
[4] = system: island skin flaps based upon the epigastic artery and vein; experiment: Rat island skin flap model, ET-1 induced vasoconstriction, CX—NO (Background Example 2); assay type: in vivo, rats; conditions: 0.25 ml of 3.17 mM CX—NO in DMSO, 15 min after ET-1, FIG. 1
pedicle flap = conditions: 30 minutes after lidocaine application, topical to pedicle; cited from earlier work
[5] = addition of 100 μM ethyl nitrite after lidocaine (2%)
[6] = 30 min after application, 2% lidocaine or 10^−4M ENO, 15 min after ET-1, mean±SEM
[7] = topical 10^−5 M ET-1 on pedicle

## O— and S-nitrosylated β-cyclodextrin
headache
  headache relief: relieved headache

## CCON=O [ENO, ethyl nitrite]
[1]; [5]
  EKG (ischemia): normalized EKG
  blood flow in grafts: restored flow
[2]; 2% lidocaine vs 10^−4M ENO
  overall effect on arterial dilation and blood flow (in words): longer lasting and greater effect
[2]; 10^−4M ENO vs 2% lidocaine
  time after application from which restoration of arterial diameter is greater compared to lidocaine (p<0.05): 10 min
  time after application from which restoration of blood flow is greater compared to lidocaine (p<0.05): 13 min
[2]; 1 min after application (lidocaine: within 1 min), 2% lidocaine or 10^−4M ENO, 15 min after ET-1, mean±SEM
  arterial diameter: 83±5 % of baseline
[2]; 2 min after application, 2% lidocaine or 10^−4M ENO, 15 min after ET-1, laser Doppler, mean±SEM
  flap blood flow: 62±6 % of baseline
[2]; 30 min after application, 2% lidocaine or 10^−4M ENO, 15 min after ET-1, laser Doppler, mean±SEM
  flap blood flow: 86±10 % of baseline
[2]; [6]
  arterial diameter: 98±5 % of baseline
  vein diameter: 75±5 % of baseline
[3]
  vasodilation and blood flow after vasospasm: vasodilation and flow is restored

## ET-1: Endothelin-1, applied topically to induce pedicle vasoconstriction (CSCSSLMDKECVYFCHLDIIW; ends and bridges not checked; cysteine pairing not given here; UniProt P05305 53-73, looked up) [reference compound]
[2]; [7]
  vasoconstriction of the epigastric artery: 69-76%
  vasoconstriction of the epigastric vein: 43-72%
[2]; topical 10^−5 M ET-1 on pedicle, laser Doppler
  reduction of flap blood flow to % of baseline: 35-45 % of baseline

## CC(N=O)(S(C)(=O)=O)S(C)(=O)=O [compound (1)]
[3]
  vasodilation and blood flow after vasospasm: same result

## nitrosylated polythiolated cyclodextrin [CX—NO]
[4]
  arterial diameter as a percentage of baseline: increase
  vein diameter as a percentage of baseline: increase
[4]; laser Doppler
  blood flow in small vessels as a percentage of baseline flow: increase

## CCN(CC)CC(=O)Nc1c(C)cccc1C [lidocaine, reference compound]
[1]; topical lidocaine (2%)
  blood flow in grafts: temporary but marginal blood flow
Pedicle flap
  effect on vasoconstriction / blood flow, decreasing to % of baseline: ≤ 50 % of baseline
